Measurements reported in US4731451A, “N-((2-oxo-3(2H)benzothiazolyl)methyl)-2-chloroacetanilides” (Monsanto Company, priority 1980, dated 1988).

Assays:
Type in all cases: in vivo
Barnyardgrass [1] = experiment: Pre-emergent herbicidal activity (Table II); conditions: 2-3 weeks
Experimental: (§1) The pre-emergence tests are conducted as follows:
(§2) A good grade of top soil is placed in aluminum pans and compacted to a depth of three-eighths to one-half inch from the top of the pan. On the top of the soil is placed a predetermined number of seeds or vegetative propagules of various plant species. The soil required to level fill the pans after seeding or adding vegetative propagules is weighed into a pan. A known amount of the active ingredient applied in a solvent or as a wettable powder suspension and the soil are thoroughly mixed, and used as a cover layer for prepared pans. After treatment, the pans are moved into a greenhouse bench where they are watered from below as needed to give adequate moisture for germination and growth.
(§3) Approximately 2-3 weeks after seeding and treating, the plants are observed and the results recorded. The herbicidal rating is obtained by means of fixed scale based on the percent injury of each plant species. The ratings are defined as follows: […]
(§4) The plant species utilized in one set of tests, the data for which are shown in Table II, are identified by letter in accordance with the following legend: […]

Canada Thistle = experiment: Pre-emergent herbicidal activity (Table II); conditions: 2-3 weeks
Experimental: as §1, §2, §3, §4

Cocklebur [2] = experiment: Pre-emergent herbicidal activity (Table II); conditions: 2-3 weeks
Experimental: as §1, §2, §3, §4

Downy Brome [3] = experiment: Pre-emergent herbicidal activity (Table II); conditions: 2-3 weeks
Experimental: as §1, §2, §3, §4

Johnsongrass = experiment: Pre-emergent herbicidal activity (Table II); conditions: 2-3 weeks
Experimental: as §1, §2, §3, §4

Lambsquarters [4] = experiment: Pre-emergent herbicidal activity (Table II); conditions: 2-3 weeks
Experimental: as §1, §2, §3, §4

Morningglory [5] = experiment: Pre-emergent herbicidal activity (Table II); conditions: 2-3 weeks
Experimental: as §1, §2, §3, §4

Quackgrass = experiment: Pre-emergent herbicidal activity (Table II); conditions: 2-3 weeks
Experimental: as §1, §2, §3, §4

Smartweed [6] = experiment: Pre-emergent herbicidal activity (Table II); conditions: 2-3 weeks
Experimental: as §1, §2, §3, §4

Velvetleaf [7] = experiment: Pre-emergent herbicidal activity (Table II); conditions: 2-3 weeks
Experimental: as §1, §2, §3, §4

Yellow Nutsedge = experiment: Pre-emergent herbicidal activity (Table II); conditions: 2-3 weeks
Experimental: as §1, §2, §3, §4

Barnyardgrass [8] = experiment: Pre-emergent herbicidal activity (Table III)
Experimental: as §1, §2, §3
(§5) The compounds were further tested by utilizing the above procedure on the following plant species: […]

Cocklebur [9] = experiment: Pre-emergent herbicidal activity (Table III)
Experimental: as §1, §2, §3, §5

Crabgrass = experiment: Pre-emergent herbicidal activity (Table III)
Experimental: as §1, §2, §3, §5

Downy Brome [10] = experiment: Pre-emergent herbicidal activity (Table III)
Experimental: as §1, §2, §3, §5

Hemp Sesbania = experiment: Pre-emergent herbicidal activity (Table III)
Experimental: as §1, §2, §3, §5

Lambsquarters [11] = experiment: Pre-emergent herbicidal activity (Table III)
Experimental: as §1, §2, §3, §5

Morningglory [12] = experiment: Pre-emergent herbicidal activity (Table III)
Experimental: as §1, §2, §3, §5

Panicum = experiment: Pre-emergent herbicidal activity (Table III)
Experimental: as §1, §2, §3, §5

Rice = experiment: Pre-emergent herbicidal activity (Table III)
Experimental: as §1, §2, §3, §5

Smartweed [13] = experiment: Pre-emergent herbicidal activity (Table III)
Experimental: as §1, §2, §3, §5

Sorghum = experiment: Pre-emergent herbicidal activity (Table III)
Experimental: as §1, §2, §3, §5

Soybean = experiment: Pre-emergent herbicidal activity (Table III)
Experimental: as §1, §2, §3, §5

Sugarbeet = experiment: Pre-emergent herbicidal activity (Table III)
Experimental: as §1, §2, §3, §5

Velvetleaf [14] = experiment: Pre-emergent herbicidal activity (Table III)
Experimental: as §1, §2, §3, §5

Wheat = experiment: Pre-emergent herbicidal activity (Table III)
Experimental: as §1, §2, §3, §5

Wild Buckwheat = experiment: Pre-emergent herbicidal activity (Table III)
Experimental: as §1, §2, §3, §5
Further: ranges in brackets are in %.

`COc1cccc(C)c1N(Cn1c(=O)sc2ccccc21)C(=O)CCl` [Example 2, N-(2'-methoxy-6'-methyl)-N-[(2-oxo-3(2H)-benzothiazolyl)methyl]-2-chloroacetanilide] was tested, and the Herbicidal rating (Barnyardgrass [1]; 5.6 kg/ha) was 3 (75-100), the Herbicidal rating (Barnyardgrass [1]; 11.2 kg/ha) was 3 (75-100) and the Herbicidal rating (Canada Thistle; 5.6 kg/ha) was 0 (0-24). The Herbicidal rating (Canada Thistle; 11.2 kg/ha) was 0 (0-24), the Herbicidal rating (Cocklebur [2]; 5.6 kg/ha) was 0 (0-24) and the Herbicidal rating (Cocklebur [2]; 11.2 kg/ha) was 0 (0-24). For the same compound, the Herbicidal rating (Downy Brome [3]; 5.6 kg/ha) was 1 (25-49), the Herbicidal rating (Downy Brome [3]; 11.2 kg/ha) was 2 (50-74) and the Herbicidal rating (Johnsongrass; 5.6 kg/ha) was 0 (0-24). For the same compound, the Herbicidal rating (Johnsongrass; 11.2 kg/ha) was 0 (0-24), the Herbicidal rating (Lambsquarters [4]; 5.6 kg/ha) was 1 (25-49) and the Herbicidal rating (Lambsquarters [4]; 11.2 kg/ha) was 1 (25-49). The Herbicidal rating (Morningglory [5]; 5.6 kg/ha) was 0 (0-24), the Herbicidal rating (Morningglory [5]; 11.2 kg/ha) was 0 (0-24) and the Herbicidal rating (Quackgrass; 5.6 kg/ha) was 2 (50-74). For the same compound, the Herbicidal rating (Quackgrass; 11.2 kg/ha) was 1 (25-49), the Herbicidal rating (Smartweed [6]; 5.6 kg/ha) was 0 (0-24) and the Herbicidal rating (Smartweed [6]; 11.2 kg/ha) was 0 (0-24). The Herbicidal rating (Velvetleaf [7]; 5.6 kg/ha) was 0 (0-24), the Herbicidal rating (Velvetleaf [7]; 11.2 kg/ha) was 0 (0-24) and the Herbicidal rating (Yellow Nutsedge; 5.6 kg/ha) was 3 (75-100). The Herbicidal rating (Yellow Nutsedge; 11.2 kg/ha) was 3 (75-100), the Herbicidal rating (Barnyardgrass [8]; 0.0112 kg/ha) was 0 (0-24) and the Herbicidal rating (Barnyardgrass [8]; 0.056 kg/ha) was 2 (50-74). The Herbicidal rating (Barnyardgrass [8]; 0.28 kg/ha) was 3 (75-100), the Herbicidal rating (Barnyardgrass [8]; 1.12 kg/ha) was 3 (75-100) and the Herbicidal rating (Barnyardgrass [8]; 5.6 kg/ha) was 3 (75-100). The Herbicidal rating (Cocklebur [9]; 0.0112 kg/ha) was 0 (0-24), the Herbicidal rating (Cocklebur [9]; 0.056 kg/ha) was 0 (0-24) and the Herbicidal rating (Cocklebur [9]; 0.28 kg/ha) was 0 (0-24). For the same compound, the Herbicidal rating (Cocklebur [9]; 1.12 kg/ha) was 0 (0-24), the Herbicidal rating (Cocklebur [9]; 5.6 kg/ha) was 0 (0-24) and the Herbicidal rating (Crabgrass; 0.0112 kg/ha) was 0 (0-24). For the same compound, the Herbicidal rating (Crabgrass; 0.056 kg/ha) was 0 (0-24), the Herbicidal rating (Crabgrass; 0.28 kg/ha) was 1 (25-49) and the Herbicidal rating (Crabgrass; 1.12 kg/ha) was 3 (75-100). The Herbicidal rating (Crabgrass; 5.6 kg/ha) was 3 (75-100), the Herbicidal rating (Downy Brome [10]; 0.0112 kg/ha) was 0 (0-24) and the Herbicidal rating (Downy Brome [10]; 0.056 kg/ha) was 0 (0-24). The Herbicidal rating (Downy Brome [10]; 0.28 kg/ha) was 1 (25-49), the Herbicidal rating (Downy Brome [10]; 1.12 kg/ha) was 3 (75-100) and the Herbicidal rating (Downy Brome [10]; 5.6 kg/ha) was 3 (75-100). The Herbicidal rating (Hemp Sesbania; 0.0112 kg/ha) was 0 (0-24), the Herbicidal rating (Hemp Sesbania; 0.056 kg/ha) was 0 (0-24) and the Herbicidal rating (Hemp Sesbania; 0.28 kg/ha) was 0 (0-24). For the same compound, the Herbicidal rating (Hemp Sesbania; 1.12 kg/ha) was 0 (0-24), the Herbicidal rating (Hemp Sesbania; 5.6 kg/ha) was 2 (50-74) and the Herbicidal rating (Lambsquarters [11]; 0.0112 kg/ha) was 0 (0-24). For the same compound, the Herbicidal rating (Lambsquarters [11]; 0.056 kg/ha) was 0 (0-24), the Herbicidal rating (Lambsquarters [11]; 0.28 kg/ha) was 2 (50-74) and the Herbicidal rating (Lambsquarters [11]; 1.12 kg/ha) was 3 (75-100). For the same compound, the Herbicidal rating (Lambsquarters [11]; 5.6 kg/ha) was 1 (25-49), the Herbicidal rating (Morningglory [12]; 0.0112 kg/ha) was 0 (0-24) and the Herbicidal rating (Morningglory [12]; 0.056 kg/ha) was 0 (0-24). For the same compound, the Herbicidal rating (Morningglory [12]; 0.28 kg/ha) was 0 (0-24), the Herbicidal rating (Morningglory [12]; 1.12 kg/ha) was 0 (0-24) and the Herbicidal rating (Morningglory [12]; 5.6 kg/ha) was 0 (0-24). For the same compound, the Herbicidal rating (Panicum; 0.0112 kg/ha) was 0 (0-24), the Herbicidal rating (Panicum; 0.056 kg/ha) was 2 (50-74) and the Herbicidal rating (Panicum; 0.28 kg/ha) was 1 (25-49). The Herbicidal rating (Panicum; 1.12 kg/ha) was 3 (75-100), the Herbicidal rating (Panicum; 5.6 kg/ha) was 3 (75-100) and the Herbicidal rating (Rice; 0.0112 kg/ha) was 0 (0-24). The Herbicidal rating (Rice; 0.056 kg/ha) was 0 (0-24), the Herbicidal rating (Rice; 0.28 kg/ha) was 1 (25-49) and the Herbicidal rating (Rice; 1.12 kg/ha) was 3 (75-100). For the same compound, the Herbicidal rating (Rice; 5.6 kg/ha) was 3 (75-100), the Herbicidal rating (Smartweed [13]; 0.0112 kg/ha) was 0 (0-24) and the Herbicidal rating (Smartweed [13]; 0.056 kg/ha) was 0 (0-24). For the same compound, the Herbicidal rating (Smartweed [13]; 0.28 kg/ha) was 1 (25-49), the Herbicidal rating (Smartweed [13]; 1.12 kg/ha) was 2 (50-74) and the Herbicidal rating (Smartweed [13]; 5.6 kg/ha) was 2 (50-74). For the same compound, the Herbicidal rating (Sorghum; 0.0112 kg/ha) was 0 (0-24), the Herbicidal rating (Sorghum; 0.056 kg/ha) was 0 (0-24) and the Herbicidal rating (Sorghum; 0.28 kg/ha) was 0 (0-24). For the same compound, the Herbicidal rating (Sorghum; 1.12 kg/ha) was 1 (25-49), the Herbicidal rating (Sorghum; 5.6 kg/ha) was 1 (25-49) and the Herbicidal rating (Soybean; 0.0112 kg/ha) was 0 (0-24). For the same compound, the Herbicidal rating (Soybean; 0.056 kg/ha) was 0 (0-24), the Herbicidal rating (Soybean; 0.28 kg/ha) was 0 (0-24) and the Herbicidal rating (Soybean; 1.12 kg/ha) was 0 (0-24). The Herbicidal rating (Soybean; 5.6 kg/ha) was 0 (0-24), the Herbicidal rating (Sugarbeet; 0.0112 kg/ha) was 0 (0-24) and the Herbicidal rating (Sugarbeet; 0.056 kg/ha) was 0 (0-24). The Herbicidal rating (Sugarbeet; 0.28 kg/ha) was 0 (0-24), the Herbicidal rating (Sugarbeet; 1.12 kg/ha) was 0 (0-24) and the Herbicidal rating (Sugarbeet; 5.6 kg/ha) was 0 (0-24). For the same compound, the Herbicidal rating (Velvetleaf [14]; 0.0112 kg/ha) was 0 (0-24), the Herbicidal rating (Velvetleaf [14]; 0.056 kg/ha) was 0 (0-24) and the Herbicidal rating (Velvetleaf [14]; 0.28 kg/ha) was 0 (0-24). For the same compound, the Herbicidal rating (Velvetleaf [14]; 1.12 kg/ha) was 0 (0-24), the Herbicidal rating (Velvetleaf [14]; 5.6 kg/ha) was 0 (0-24) and the Herbicidal rating (Wheat; 0.0112 kg/ha) was 0 (0-24). The Herbicidal rating (Wheat; 0.056 kg/ha) was 0 (0-24), the Herbicidal rating (Wheat; 0.28 kg/ha) was 0 (0-24) and the Herbicidal rating (Wheat; 1.12 kg/ha) was 0 (0-24). The Herbicidal rating (Wheat; 5.6 kg/ha) was 2 (50-74), the Herbicidal rating (Wild Buckwheat; 0.0112 kg/ha) was 0 (0-24) and the Herbicidal rating (Wild Buckwheat; 0.056 kg/ha) was 0 (0-24). For the same compound, the Herbicidal rating (Wild Buckwheat; 0.28 kg/ha) was 0 (0-24), the Herbicidal rating (Wild Buckwheat; 1.12 kg/ha) was 0 (0-24) and the Herbicidal rating (Wild Buckwheat; 5.6 kg/ha) was 0 (0-24).
